Structures can show the parent of a compound that is named as a salt.
Biological target: Cloned Human Serotonin Receptor, Subtype 7 (h5HT7) (Homo sapiens, UniProt P34969)
Experiment: Radioligand binding assay, [125I]LSD, cloned human 5-HT7 receptor expressed in CHO cells (Flashplate)
Conditions: radioligand [125I]LSD 0.82 nM, 240 min at room temperature, triplicate, read-out: 5-HT7 IC-50
Protocol: Biological Assays Radioligand Binding
Radioligand binding assays were performed using the Cloned Human Serotonin Receptor, Subtype 7 (h5HT7), expressed in CHO cells, coated on Flashplate (Basic FlashPlate Cat.: SMP200) from PerkinElmer (Cat.: 6120512). The protocol assay was essentially the recommended protocol in the Technical Data Sheet by PerkinEmer Life and Analytical Sciences. The Mass membrane protein/well was typically 12 μg and the Receptor/well was about 9-10 fmoles. The Flashplate were let equilibrate at room temperature for one hour before the addition of the components of the assay mixture. The binding buffer was: 50 mM Tris-HCl, pH 7.4, containing 10 mM MgCl2, 0.5 mM EDTA and 0.5% BSA. The radioligand was [^125I]LSD at a final concentration of 0.82 nM. Nonspecific binding was determined with 50 μM of Clozapine. The assay volume was 25 μl. TopSeal-A were applied onto Flashplate microplates and they were incubated at room temperature for 240 minutes in darkness. The radioactivity were quantified by liquid scintillation spectrophotometry (Wallac 1450 Microbeta Trilux) with a count delay of 4 minutes prior to counting and a counting time of 30 seconds per well. Competition binding data were analyzed by using the LIGAND program (Munson and Rodbard, LIGAND: A versatile, computerized approach for characterization of ligand-binding systems. Anal. Biochem. 107: 220-239, 1980) and assays were performed in triplicate determinations for each point.

Sequence of Cloned Human Serotonin Receptor, Subtype 7 (h5HT7) (P34969 whole entry): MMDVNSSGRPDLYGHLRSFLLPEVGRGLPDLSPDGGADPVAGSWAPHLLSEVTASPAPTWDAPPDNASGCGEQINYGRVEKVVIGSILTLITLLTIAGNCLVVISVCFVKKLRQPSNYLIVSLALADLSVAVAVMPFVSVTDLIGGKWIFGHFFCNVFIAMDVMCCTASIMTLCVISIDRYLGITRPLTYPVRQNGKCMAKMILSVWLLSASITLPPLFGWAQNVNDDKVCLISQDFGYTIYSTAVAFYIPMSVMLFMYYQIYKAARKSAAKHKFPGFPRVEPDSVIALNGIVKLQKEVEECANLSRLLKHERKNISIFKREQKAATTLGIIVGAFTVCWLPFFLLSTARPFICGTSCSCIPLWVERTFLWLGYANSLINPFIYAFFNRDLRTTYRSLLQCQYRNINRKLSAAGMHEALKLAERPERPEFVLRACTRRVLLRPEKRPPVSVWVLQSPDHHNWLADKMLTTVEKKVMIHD

| IC50 | SMILES |
| --- | --- |
| 6.2 nM | CCN(CCCN1CCc2cc(OC)c(OC)c3c2C1CC3)S(=O)(=O)c1cc(Cl)ccc1Cl (centres unmarked) [Compound 80, 2,5-Dichloro-N-[3-(7,8-dimethoxy-2,2a,4,5-tetrahydro-1H-3-aza-acenaphthylen-3-yl)-propyl]-N-ethyl-benzene sulfonamide hydrochloride] |
| 20.3 nM | CCN(CCCN1CCc2cccc3c2C1CC3)S(=O)(=O)c1cccc2ccccc12 (centres unmarked) [Compound 87, Naphthalene-1-sulfonic acid ethyl-[3-(2,2a,4,5-tetrahydro-1H-3-aza-acenaphthylen-3-yl)-propyl]-amide hydrochloride] |
| 4.5 nM | CCN(CCCN1CCc2cccc3c2C1CC3)S(=O)(=O)c1cccc(C)c1 (centres unmarked) [Compound 88, N-Ethyl-3-methyl-N-[3-(2,2a,4,5-tetrahydro-1H-3-aza-acenaphthylen-3-yl)-propyl]-benzenesulfonamide hydrochloride] |
| 6.7 nM | CCN(CCCN1CCc2cccc3c2C1CC3)S(=O)(=O)c1ccc(C)cc1 (centres unmarked) [Compound 89, N-Ethyl-4-methyl-N-[3-(2,2a,4,5-tetrahydro-1H-3-aza-acenaphthylen-3-yl)-propyl]-benzenesulfonamide hydrochloride] |
| 8 nM | CCN(CCCN1CCc2cc(OC)c(OC)c3c2C1CC3)S(=O)(=O)c1ccccc1Cl (centres unmarked) [Compound 111, 2-Chloro-N-[3-(7,8-dimethoxy-2,2a,4,5-tetrahydro-1H-3-aza-acenaphthylen-3-yl)-propyl]-N-ethyl-benzenesulfonamide hydrochloride] |
